Results as given in patent US9249131B2, “Modulators of ATP-binding cassette transporters” (Vertex Pharmaceuticals Incorporated, priority 2003, dated 2016).

Molecular target: T1, ΔF508-CFTR (Homo sapiens, UniProt P13569, DEL508-508)
T1 construct: expressed in transfected cells; host or cells: NIH3T3 mouse fibroblasts stably expressing ΔF508-CFTR for the optical, whole-cell and single-channel assays; Fisher rat epithelial (FRT) cells for Ussing chamber follow-up
Experiment: Assays for ΔF508-CFTR correction and potentiator properties (membrane potential optical and electrophysiological methods)
Format: cell-based
Conditions: CFTR modulation; for % Activity: % Efficacy; for EC50: tested using the above methods
In short: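 NIH3T3 mouse fibroblasts stably expressing ΔF508-CFTR were used, with membrane potential read by DiSBAC2(3)/CC2-DMPE FRET on VIPR. Correctors: 16 h compound exposure at 37 °C, then activation with forskolin plus genistein in Cl⁻-free medium. Potentiators: cells held 24 h at 27 °C, compound added in Cl⁻-free medium, 2-10 μM forskolin 22 s later (final Cl⁻ 28 mM).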

T1 sequence (P13569 with tags, fused parts or gaps DEL508-508): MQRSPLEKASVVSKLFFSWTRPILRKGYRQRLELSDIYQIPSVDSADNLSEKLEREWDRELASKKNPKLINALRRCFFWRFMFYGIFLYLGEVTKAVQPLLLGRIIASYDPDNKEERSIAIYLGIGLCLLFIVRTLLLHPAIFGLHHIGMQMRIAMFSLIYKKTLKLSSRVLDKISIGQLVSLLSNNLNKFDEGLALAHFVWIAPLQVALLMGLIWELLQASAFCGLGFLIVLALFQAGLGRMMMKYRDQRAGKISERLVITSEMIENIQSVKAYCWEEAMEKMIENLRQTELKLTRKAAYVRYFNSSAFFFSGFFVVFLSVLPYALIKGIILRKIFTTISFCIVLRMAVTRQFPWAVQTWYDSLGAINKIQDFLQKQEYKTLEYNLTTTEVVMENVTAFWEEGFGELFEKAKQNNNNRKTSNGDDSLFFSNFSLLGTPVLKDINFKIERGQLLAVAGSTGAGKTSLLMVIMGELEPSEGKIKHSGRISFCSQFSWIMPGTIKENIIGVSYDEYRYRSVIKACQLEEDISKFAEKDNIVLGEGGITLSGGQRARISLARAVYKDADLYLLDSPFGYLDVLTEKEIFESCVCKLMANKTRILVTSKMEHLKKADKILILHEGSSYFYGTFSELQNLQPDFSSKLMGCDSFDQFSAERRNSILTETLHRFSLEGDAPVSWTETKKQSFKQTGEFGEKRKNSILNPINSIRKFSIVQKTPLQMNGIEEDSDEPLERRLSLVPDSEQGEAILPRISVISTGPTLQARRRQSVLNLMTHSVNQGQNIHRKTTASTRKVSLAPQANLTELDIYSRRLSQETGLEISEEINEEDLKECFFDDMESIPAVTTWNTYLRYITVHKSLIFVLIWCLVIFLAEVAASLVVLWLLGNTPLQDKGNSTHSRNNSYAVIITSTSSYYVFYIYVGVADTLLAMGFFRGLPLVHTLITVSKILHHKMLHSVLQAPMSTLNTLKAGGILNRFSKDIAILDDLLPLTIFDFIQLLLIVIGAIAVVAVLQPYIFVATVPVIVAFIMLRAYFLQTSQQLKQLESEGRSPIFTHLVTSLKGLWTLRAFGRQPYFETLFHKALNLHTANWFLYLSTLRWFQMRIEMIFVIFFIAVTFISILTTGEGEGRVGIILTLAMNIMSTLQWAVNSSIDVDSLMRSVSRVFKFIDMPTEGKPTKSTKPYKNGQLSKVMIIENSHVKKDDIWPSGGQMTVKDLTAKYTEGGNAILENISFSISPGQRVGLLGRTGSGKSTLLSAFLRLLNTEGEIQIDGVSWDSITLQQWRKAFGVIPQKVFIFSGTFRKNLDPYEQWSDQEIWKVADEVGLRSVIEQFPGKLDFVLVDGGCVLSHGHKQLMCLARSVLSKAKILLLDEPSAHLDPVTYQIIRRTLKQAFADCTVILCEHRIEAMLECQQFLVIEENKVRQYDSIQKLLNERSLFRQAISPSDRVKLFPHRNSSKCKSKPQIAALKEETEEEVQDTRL

SMILES	% Activity	EC50 [µM]
Cc1ccc(S(=O)(=O)N2CCN(C(C)C(=O)Nc3nc(-c4ccccc4)c(-c4ccccc4)s3)CC2)cc1 (stereo not shown) [compound 198]	++ (“++” means between 25% to 100%)	< 10
CC(C(=O)Nc1nc(-c2ccccc2)cs1)N1CCN(S(=O)(=O)c2ccc(Br)cc2)CC1 (stereo not shown) [compound 199]	+++ (“+++” means >100%)	< 10
CC[C@@H](C(=O)Nc1ncc(Cc2ccccc2Cl)s1)c1ccccc1 [compound 201]	+++ (“+++” means >100%)	< 10
CC[C@H](C(=O)Nc1ncc(Cc2ccccc2Cl)s1)c1ccccc1 [compound 202]	++ (“++” means between 25% to 100%)	< 10
CC[C@@H](C(=O)Nc1ncc(Cc2cccc(Cl)c2)s1)c1ccccc1 [compound 203]	++ (“++” means between 25% to 100%)	< 10
CC[C@H](C(=O)Nc1ncc(Cc2cccc(Cl)c2)s1)c1ccccc1 [compound 204]	++ (“++” means between 25% to 100%)	< 10
CC[C@H](C(=O)Nc1ncc(Cc2ccc(Cl)cc2)s1)c1ccccc1 [compound 205]	++ (“++” means between 25% to 100%)	< 10
CC(C)CC(=O)Nc1ncc(Cc2ccccc2Cl)s1 [compound 206]	++ (“++” means between 25% to 100%)	< 10
O=C(Nc1ncc(Cc2ccccc2Cl)s1)C1CC1 [compound 207]	++ (“++” means between 25% to 100%)	< 10
CCC(=O)Nc1ncc(Cc2ccccc2Cl)s1 [compound 208]	++ (“++” means between 25% to 100%)	25 to 60
O=C(Nc1ncc(Cc2ccccc2Cl)s1)C1CCCC1 [compound 209]	++ (“++” means between 25% to 100%)	< 10
CCCC(=O)Nc1ncc(Cc2ccccc2Cl)s1 [compound 210]	++ (“++” means between 25% to 100%)	10 to 25
CN(C)C(C(=O)Nc1ncc(Cc2ccccc2Cl)s1)c1ccccc1 (stereo not shown) [compound 211]	++ (“++” means between 25% to 100%)	< 10
CCN(CC)C(C(=O)Nc1ncc(Cc2ccccc2Cl)s1)c1ccccc1 (stereo not shown) [compound 212]	++ (“++” means between 25% to 100%)	< 10
CCNC(C(=O)Nc1ncc(Cc2ccccc2Cl)s1)c1ccccc1 (stereo not shown) [compound 213]	++ (“++” means between 25% to 100%)	10 to 25
O=C(Nc1ncc(Cc2ccccc2Cl)s1)C(c1ccccc1)N1CCOCC1 (stereo not shown) [compound 214]	++ (“++” means between 25% to 100%)	10 to 25
O=C(Nc1ncc(Cc2ccccc2Cl)s1)C(c1ccccc1)N1CCCCC1 (stereo not shown) [compound 215]	++ (“++” means between 25% to 100%)	< 10
COC(C(=O)Nc1ncc(Cc2ccccc2Cl)s1)c1ccccc1 (stereo not shown) [compound 216]	++ (“++” means between 25% to 100%)	10 to 25
CNC(C(=O)Nc1ncc(Cc2ccccc2Cl)s1)c1ccccc1 (stereo not shown) [compound 217]	++ (“++” means between 25% to 100%)	25 to 60
CCC(NC)C(=O)Nc1ncc(Cc2ccccc2Cl)s1 (stereo not shown) [compound 218]	++ (“++” means between 25% to 100%)	25 to 60

SMILES	% Activity	EC50 [µM]
CCC(OC)C(=O)Nc1ncc(Cc2ccccc2Cl)s1 (stereo not shown) [compound 219]	++ (“++” means between 25% to 100%)	25 to 60
CCNC(CC)C(=O)Nc1ncc(Cc2ccccc2Cl)s1 (stereo not shown) [compound 220]	++ (“++” means between 25% to 100%)	25 to 60
CCC(C(=O)Nc1ncc(Cc2ccccc2Cl)s1)N(CC)CC (stereo not shown) [compound 221]	++ (“++” means between 25% to 100%)	10 to 25
CCC(C(=O)Nc1ncc(Cc2ccccc2Cl)s1)N(C)C (stereo not shown) [compound 222]	++ (“++” means between 25% to 100%)	25 to 60
CCC(C(=O)Nc1ncc(Cc2ccccc2Cl)s1)N1CCOCC1 (stereo not shown) [compound 223]	++ (“++” means between 25% to 100%)	25 to 60
CCC(C(=O)Nc1ncc(Cc2ccccc2Cl)s1)N1CCSCC1 (stereo not shown) [compound 224]	++ (“++” means between 25% to 100%)	< 10
CCC(C(=O)Nc1ncc(Cc2ccccc2Cl)s1)N1CCCCC1 (stereo not shown) [compound 225]	++ (“++” means between 25% to 100%)	< 10
Cc1cccc(C(=O)Nc2ncc(-c3ccccc3)s2)c1 [compound 226]	++ (“++” means between 25% to 100%)	10 to 25
COc1ccccc1-c1csc(NC(=O)c2cccc(Cl)c2)n1 [compound 227]	++ (“++” means between 25% to 100%)	10 to 25
Cc1cccc(C(=O)Nc2nc(-c3ccccc3Cl)cs2)c1 [compound 228]	++ (“++” means between 25% to 100%)	10 to 25
O=C(Nc1nc(-c2ccccc2Cl)cs1)c1cccc(Cl)c1 [compound 229]	++ (“++” means between 25% to 100%)	10 to 25
Cc1ccc(C(=O)Nc2nc(-c3ccccc3Cl)cs2)cc1 [compound 230]	+++ (“+++” means >100%)	< 10
COc1cccc(-c2csc(NC(=O)c3cccc(C)c3)n2)c1 [compound 231]	+++ (“+++” means >100%)	10 to 25
COc1cccc(-c2csc(NC(=O)c3cccc(Cl)c3)n2)c1 [compound 232]	++ (“++” means between 25% to 100%)	10 to 25
O=C(Nc1ncc(-c2ccccc2)s1)c1cccc(Cl)c1 [compound 233]	++ (“++” means between 25% to 100%)	25 to 60
CCOC(C(=O)Nc1ncc(Cc2ccccc2Cl)s1)c1ccccc1 (stereo not shown) [compound 234]	++ (“++” means between 25% to 100%)	10 to 25
O=C(Nc1ncc(Cc2ccccc2Cl)s1)C(c1ccccc1)n1cccn1 (stereo not shown) [compound 235]	++ (“++” means between 25% to 100%)	< 10
COc1ccccc1Cc1cnc(NC(=O)C(C)(C)c2ccccc2)s1 [compound 237]	+++ (“+++” means >100%)	< 10
CC(C)(C(=O)Nc1ncc(Cc2ccccc2Cl)s1)c1ccccc1 [compound 238]	+++ (“+++” means >100%)	< 10
CCN(C)C(C(=O)Nc1ncc(Cc2ccccc2Cl)s1)c1ccccc1 (stereo not shown) [compound 239]	++ (“++” means between 25% to 100%)	< 10

SMILES	% Activity	EC50 [µM]
CN(C1CCCCC1)C(C(=O)Nc1ncc(Cc2ccccc2Cl)s1)c1ccccc1 (stereo not shown) [compound 240]	++ (“++” means between 25% to 100%)	< 10
O=C(Nc1ncc(Cc2ccccc2Cl)s1)C(c1ccccc1)N1CCCC1 (stereo not shown) [compound 241]	++ (“++” means between 25% to 100%)	< 10
CC1CCCN1C(C(=O)Nc1ncc(Cc2ccccc2Cl)s1)c1ccccc1 (stereo not shown) [compound 242]	+++ (“+++” means >100%)	< 10
CC1CCCN(C(C(=O)Nc2ncc(Cc3ccccc3Cl)s2)c2ccccc2)C1 (stereo not shown) [compound 243]	+++ (“+++” means >100%)	< 10
O=C(Nc1ncc(Cc2ccccc2Cl)s1)C(c1ccccc1)N1CCCC(CO)C1 (stereo not shown) [compound 244]	++ (“++” means between 25% to 100%)	< 10
CCOC(=O)C1CCCN(C(C(=O)Nc2ncc(Cc3ccccc3Cl)s2)c2ccccc2)C1 (stereo not shown) [compound 245]	++ (“++” means between 25% to 100%)	< 10
CC1CCN(C(C(=O)Nc2ncc(Cc3ccccc3Cl)s2)c2ccccc2)CC1 (stereo not shown) [compound 246]	++ (“++” means between 25% to 100%)	< 10
CCOC(=O)C1CCN(C(C(=O)Nc2ncc(Cc3ccccc3Cl)s2)c2ccccc2)CC1 (stereo not shown) [compound 247]	+++ (“+++” means >100%)	< 10
O=C(Nc1ncc(Cc2ccccc2Cl)s1)C(c1ccccc1)N1CCC(O)CC1 (stereo not shown) [compound 248]	++ (“++” means between 25% to 100%)	< 10
O=C(Nc1ncc(Cc2ccccc2Cl)s1)C(c1ccccc1)N1CCN(c2ncccn2)CC1 (stereo not shown) [compound 249]	++ (“++” means between 25% to 100%)	< 10
O=C(Nc1ncc(Cc2ccccc2Cl)s1)C(NC1CCCC1)c1ccccc1 (stereo not shown) [compound 250]	++ (“++” means between 25% to 100%)	< 10
CCC(Nc1ccccc1)C(=O)Nc1ncc(Cc2ccccc2Cl)s1 (stereo not shown) [compound 251]	++ (“++” means between 25% to 100%)	< 10
CCC(Oc1ccccc1)C(=O)Nc1ncc(Cc2ccccc2Cl)s1 (stereo not shown) [compound 252]	++ (“++” means between 25% to 100%)	10 to 25
CCOC(=O)C1CCCCN1C(C(=O)Nc1ncc(Cc2ccccc2Cl)s1)c1ccccc1 (stereo not shown) [compound 253]	++ (“++” means between 25% to 100%)	25 to 60
CN(Cc1ccccc1)C(C(=O)Nc1ncc(Cc2ccccc2Cl)s1)c1ccccc1 (stereo not shown) [compound 254]	++ (“++” means between 25% to 100%)	< 10
CCC(C(=O)Nc1ncc(Cc2ccccc2Cl)s1)c1cccnc1 (stereo not shown) [compound 255]	++ (“++” means between 25% to 100%)	< 10
N#Cc1ccccc1Cc1cnc(NC(=O)C(c2ccccc2)C2CCCCC2)s1 (stereo not shown) [compound 256]	++ (“++” means between 25% to 100%)	< 10
CC(C(=O)Nc1ncc(Cc2ccccc2C#N)s1)c1ccccc1 (stereo not shown) [compound 257]	++ (“++” means between 25% to 100%)	25 to 60
CCC(C(=O)Nc1ncc(Cc2ccccc2C#N)s1)c1ccccc1 (stereo not shown) [compound 258]	++ (“++” means between 25% to 100%)	10 to 25
